Source: patent publication US20240124434A1, “ATF6 INHIBITORS AND USES THEREOF” (Altos Labs, Inc., priority 2018, published 2024)
Like-named read-outs stand apart in the source and are kept apart here.

Tested on: ATF6
Assay: ERSE ATF6-luciferase reporter assay (thapsigargin-induced ER stress)
Format: cell-based, human
Conditions: Homo sapiens, U2OS, thapsigargin-induced ER stress, U2-OS ATF6 luc reporter cells; for inhibition at 1 µM: 8 hr
Protocol: Human bone osteosarcoma (U2-OS) cells were obtained from the American Type Culture Collection (ATCC HTB-96, ATCC Manassas, VA) and were cultured with growing medium containing Dulbecco's Modified Eagle's Medium (DMEM) (Cat. No.:SH30023.02, HyClone) supplemented with fetal bovine serum (FBS) 10% (Cat. No.: 16000044, Gibco) and 1% penicillin-streptomycin antibiotic cocktail (Cat. No.: SV30010, Hyclone).
Cignal Lenti ATF6 luc reporter (Qiagen #CLS-6031L) was used to produce a stable cell line in U2-OS cells. […] The number of response elements as well as the intervening sequence between response elements has been experimentally optimized to maximize the signal to noise ratio.
Compounds were prepared as 10 mM stock solutions and stored at −80° C.
U2-OS ATF6 luc reporter cells were thawed 3-4 days and split once prior to assays. […] At the day of experiment, cells were pre-treated for 30 min with 50 μL growing medium containing either vehicle (dimethyl sulfoxide (DMSO)) (Cat. No.: D2650, Sigma-Aldrich) or 1 μM test compound. After the pre-incubation time, 50 μL of a solution containing 0.2 μM thapsigargin (Tg)(an ER stress inducer) was added to respective wells. This Tg solution also contained vehicle or test compounds at 1 μM. The final concentration of DMSO in each well was kept at 0.3%. Plates were incubated for 8 hr in humidified chambers.
Finally, after 8 hr, plates were cooled to room temperature for 10 min prior to luciferase assays. Luciferase reactions were performed using Luciferase Assay System (Cat. No.: E4550, Promega). Briefly, each well was washed with 100 μl of PBS1X and then 20 μl of lysis reagent were added into each well. Plates were shaken for 10 min, then 50 μl of Luciferase Assay Reagent were added to each well and luminescence was read with an integration time of 1 s and a gain of 110 in a Synergy 4 Microplate reader.
For the assessment of the half-maximal inhibitory concentration (IC50) for selected compounds, dose-response assays were performed. Compounds were serially diluted using DMSO starting at 30 μM until 1 nM. The assays were run as described above.

[1] = 8 h, 1 μM test compound, read-out: Inh. ATF6-Luc @ 1 μM [%]
[2] = dose-response 30 μM to 1 nM, read-out: IC50 ATF6-Luc reporter
[3] = 8 h, read-out: Inh. ATF6-Luc @ 1 μM [%], 1 μM test compound
[4] = read-out: IC50 ATF6-Luc reporter [μM], dose-response 30 μM to 1 nM
[5] = 1 μM test compound, read-out: Inh. ATF6-Luc @ 1 μM [%]

| Structure (SMILES) | inhibition at 1 µM [1] | IC50 [2] | inhibition at 1 µM [3] | IC50 [4] | inhibition at 1 µM [5] |
| --- | --- | --- | --- | --- | --- |
| C[C@H](c1ccc(C(F)(F)F)cc1C(F)(F)F)n1cc(NC(=O)c2cnc(-c3ccccn3)o2)cn1 [Compound 127, (R)N-(1-(1-(2,4-bis(trifluoromethyl)phenyl)ethyl)-1H-pyrazol-4-yl)-2-(pyridin-2-yl)oxazole-5-carboxamide] | < 25% | > 10 µM |  |  |  |
| C[C@@H](c1ccc(C(F)(F)F)cc1C(F)(F)F)n1cc(NC(=O)c2cc(-c3ccccn3)no2)cn1 [Compound 77, (S)—N-(1-(1-(2,4-bis(trifluoromethyl)phenyl)ethyl)-1H-pyrazol-4-yl)-3-(pyridin-2-yl)isoxazole-5-carboxamide] |  |  | < 25% | > 10 µM |  |
| C[C@H](c1ccc(C(F)(F)F)cc1C(F)(F)F)n1cc(NC(=O)c2cc(-c3cccnc3)on2)cn1 [Compound 36, (R)-N-(1-(1-(2,4-bis(trifluoromethyl)phenyl)ethyl)-1H-pyrazol-4-yl)-5-(pyridin-3-yl)isoxazole-3-carboxamide] | < 25% | > 10 µM |  |  |  |
| COc1ccccc1-c1cc(C(=O)Nc2cnn(Cc3ccc(C(F)(F)F)cc3C(F)(F)F)c2)no1 [Compound 91, N-(1-(2,4-bis(trifluoromethyl)benzyl)-1H-pyrazol-4-yl)-5-(2-methoxyphenyl)isoxazole-3-carboxamide] |  | > 10 µM |  |  | < 25% |
| O=C(Nc1cnn(Cc2ccc(C(F)(F)F)cc2C(F)(F)F)c1)c1ccon1 [Compound 23, N-(1-(2,4-bis(trifluoromethyl)benzyl)-1H-pyrazol-4-yl)isoxazole-3-carboxamide] | < 25% | > 10 µM |  |  |  |
| COc1ccccc1-c1cc(C(=O)Nc2cnn([C@@H](C)c3ccc(C(F)(F)F)cc3C(F)(F)F)c2)no1 [Compound 89, (S)N-(1-(1-(2,4-bis(trifluoromethyl)phenyl)ethyl)-1H-pyrazol-4-yl)-5-(2-methoxyphenyl)isoxazole-3-carboxamide] | < 25% | > 10 µM |  |  |  |
| CC(c1ccc(C(F)(F)F)cc1C(F)(F)F)n1cc(NC(=O)c2cc(-c3ncccc3Cl)on2)cn1 (stereo not shown) [Compound 32, N-(1-(1-(2,4-bis(trifluoromethyl)phenyl)ethyl)-1H-pyrazol-4-yl)-5-(3-chloropyridin-2-yl)isoxazole-3-carboxamide] | < 25% | > 10 µM |  |  |  |
| N#Cc1ccc(Cn2cc(NC(=O)c3cc(-c4ccco4)on3)cn2)cc1 [Compound 25, N-(1-(4-cyanobenzyl)-1H-pyrazol-4-yl)-5-(furan-2-yl)isoxazole-3-carboxamide] | < 25% | > 10 µM |  |  |  |
| O=C(Nc1cnn(Cc2c(Cl)cccc2Cl)c1)c1nnc(-c2ccccn2)s1 [Compound 145, N-(1-(2,6-dichlorobenzyl)-1H-pyrazol-4-yl)-5-(pyridin-2-yl)-1,3,4-thiadiazole-2-carboxamide] | < 25% | > 10 µM |  |  |  |
| N#Cc1ccc(Cn2cc(NC(=O)c3cc(-c4ccco4)on3)cn2)cc1C(F)(F)F [Compound 26, N-(1-(4-cyano-3-(trifluoromethyl)benzyl)-1H-pyrazol-4-yl)-5-(furan-2-yl)isoxazole-3-carboxamide] | < 25% | > 10 µM |  |  |  |
| CC(c1ccc(C(F)(F)F)cc1C(F)(F)F)n1cc(NC(=O)c2ccc(-c3ccccn3)cn2)cn1 (stereo not shown) [Compound 82, N-(1-(1-(2,4-bis(trifluoromethyl)phenyl)ethyl)-1H-pyrazol-4-yl)-[2,3′-bipyridine]-6′-carboxamide] |  | > 10 µM |  |  | < 25% |
| C[C@@H](c1ccc(F)cc1C(F)(F)F)n1cc(NC(=O)c2cc(-c3ccccn3)on2)cn1 [Compound 111, (S)—N-(1-(1-(4-fluoro-2-(trifluoromethyl)phenyl)ethyl)-1H-pyrazol-4-yl)-5-(pyridin-2-yl)isoxazole-3-carboxamide] | < 25% | > 10 µM |  |  |  |
| C[C@@H](c1ccc(C(F)(F)F)cc1C(F)(F)F)n1cc(NC(=O)c2cc(-c3ncccn3)on2)cn1 [Compound 102, (S)—N-(1-(1-(2,4-bis(trifluoromethyl)phenyl)ethyl)-1H-pyrazol-4-yl)-5-(pyrimidin-2-yl)isoxazole-3-carboxamide] | < 25% | > 10 µM |  |  |  |
| CC(c1ccc(C(F)(F)F)cc1C(F)(F)F)n1cc(NC(=O)c2cc(-c3ccccn3)n(C)n2)cn1 (stereo not shown) [Compound 113, N-(1-(1-(2,4-bis(trifluoromethyl)phenyl)ethyl)-1H-pyrazol-4-yl)-1-methyl-5-(pyridin-2-yl)-1H-pyrazole-3-carboxamide] | < 25% | > 10 µM |  |  |  |
| O=C(Nc1cnn(Cc2c(Cl)cccc2Cl)c1)c1cc(-c2ccccn2)on1 [Compound 146, N-(1-(2,6-dichlorobenzyl)-1H-pyrazol-4-yl)-5-(pyridin-2-yl)isoxazole-3-carboxamide] | < 25% | > 10 µM |  |  |  |
| C[C@@H](c1ccc(C(F)(F)F)cc1C(F)(F)F)n1cc(NC(=O)c2nnc(-c3ccco3)s2)cn1 [Compound 161, (S)—N-(1-(1-(2,4-bis(trifluoromethyl)phenyl)ethyl)-1H-pyrazol-4-yl)-5-(furan-2-yl)-1,3,4-thiadiazole-2-carboxamide] | 25 to 50% | < 1 µM |  |  |  |
| CC(c1ccc(C(F)(F)F)cc1C(F)(F)F)n1cc(NC(=O)c2cnc(-c3ccco3)s2)cn1 (stereo not shown) [Compound 80, N-(1-(1-(2,4-bis(trifluoromethyl)phenyl)ethyl)-1H-pyrazol-4-yl)-2-(furan-2-yl)thiazole-5-carboxamide] | < 25% | > 10 µM |  |  |  |
| C[C@@H](c1ccc(C(F)(F)F)cc1C(F)(F)F)n1cc(NC(=O)c2nnc(-c3cnccn3)s2)cn1 [Compound 153] |  |  | < 25% | > 10 µM |  |
| C[C@@H](c1ccc(C(F)(F)F)cc1C(F)(F)F)n1cc(NC(=O)c2nnc(-c3ccccn3)o2)cn1 [Compound 134] | < 25% | > 10 µM |  |  |  |
| C[C@@H](c1ccc(C(F)(F)F)cc1F)n1cc(NC(=O)c2cc(-c3ccccn3)on2)cn1 [Compound 109, (S)—N-(1-(1-(2-fluoro-4-(trifluoromethyl)phenyl)ethyl)-1H-pyrazol-4-yl)-5-(pyridine-2-yl)isoxazole-3-carboxamide] | < 25% | > 10 µM |  |  |  |
| CC(c1ccc(F)cc1C(F)(F)F)n1cc(NC(=O)c2nnc(-c3ccccn3)s2)cn1 (stereo not shown) [Compound 137, N-(1-(1-(4-fluoro-2-(trifluoromethyl)phenyl)ethyl)-1H-pyrazol-4-yl)-5-(pyridin-2-yl)-1,3,4-thiadiazole-2-carboxamide] | < 25% | > 10 µM |  |  |  |
| C[C@H](c1ccc(C(F)(F)F)cc1C(F)(F)F)n1cc(NC(=O)/C=C/c2ccco2)cn1 [Compound 85, (R,E)—N-(1-(1-(2,4-bis(trifluoromethyl)phenyl)ethyl)-1H-pyrazol-4-yl)-3-(furan-2-yl)acrylamide] | < 25% | > 10 µM |  |  |  |
| O=C(Nc1cnn(C2CCc3ccccc32)c1)c1nnc(-c2ccco2)s1 (stereo not shown) [Compound 144, N-(1-(2,3-dihydro-1H-inden-1-yl)-1H-pyrazol-4-yl)-5-(furan-2-yl)-1,3,4-thiadiazole-2-carboxamide] | < 25% | > 10 µM |  |  |  |
| C[C@@H](c1ccc(C(F)(F)F)cc1C(F)(F)F)n1cc(NC(=O)c2cn(-c3ccccn3)nn2)cn1 [Compound 122, (S)—N-(1-(1-(2,4-bis(trifluoromethyl)phenyl)ethyl)-1H-pyrazol-4-yl)-1-(pyridin-2-yl)-1H-1,2,3-triazole-4-carboxamide] |  |  | < 25% | > 10 µM |  |
| O=C(Nc1cnn(Cc2ccc(C(F)(F)F)cc2C(F)(F)F)c1)c1cncc(-c2ccccc2)c1 [Compound 21, N-(1-(2,4-bis(trifluoromethyl)benzyl)-1H-pyrazol-4-yl)-5-phenylnicotinamide] | < 25% | > 10 µM |  |  |  |
| C[C@@H](c1ccc(C(F)(F)F)cc1C(F)(F)F)n1cc(NC(=O)c2cnccn2)cn1 [Compound 141, (S)—N-(1-(1-(2,4-bis(trifluoromethyl)phenyl)ethyl)-1H-pyrazol-4-yl)pyrazine-2-carboxamide] | < 25% | > 10 µM |  |  |  |
